Test results from paper PMC8399847, “Hybrid Quinolinyl Phosphonates as Heterocyclic Carboxylate Isosteres: Synthesis and Biological Evaluation against Topoisomerase 1B (TOP1B)” (Pharmaceuticals, 2021).

Legend:
Assay type in all cases: cell-based
[1] = CCK-8 cytotoxicity assay, MRC-5 non-cancerous cells; conditions: human, MRC-5 non-malignant lung fibroblast cells, MRC-5 non-malignant lung fibroblasts
Experimental: (§1) The cytotoxicity of the newly synthesized quinolinylphosphonates 7 was evaluated in vitro by testing their antiproliferative activities against several human cancer cell lines: A549 (human lung adenocarcinoma cells), SKOV3 (human ovarian carcinoma), and HEK293 (human embryonic kidney). In order to analyze the selective cytotoxicity facing exclusively cancerous cell lines, cytotoxicity against non-cancerous cell lines (MRC-5, lung fibroblast cells) was also evaluated. Cell counting kit (CCK-8) assay was employed to assess growth inhibition and, cell proliferation inhibitory activities of compounds that are listed in Table 1 as IC50 values. […] According to the data presented in Table 1, in general, all these phosphorated derivatives present higher selective cytotoxicity in the A549 cell line than in the other two cell lines, SKOV3 and HEK293, although slight differences are observed compared to human ovarian carcinoma (SKOV3).
(§2) Cells were cultured according to the supplier’s instructions, A549 (ATCC® CCL-185), SKOV3 (ATCC® HTB-77), HEK293 (CLS GmbH), MRC-5 (ATCC® CCL-171™). Cells were seeded in 96-well plates at a density of 2–2.5 × 10^3 cells per well and incubated overnight in 0.1 mL of media supplied with 10% Fetal Bovine Serum (Lonza, Basel, Switzerland) in a 5% CO2 incubator at 37 °C. On day 2, drugs (concentration between 0.5–50 μM) were added and samples were incubated for 48 h. After treatment, 10 μL of cell counting kit-8 was added to each well for an additional 2 h incubation at 37 °C. The absorbance of each well was determined by an Automatic Elisa Reader System at 450 nm wavelength. CPT was purchased from Sigma-Aldrich and used as a positive control.

[2] = tested on: A549 (human lung adenocarcinoma cells); assay: CCK-8 cytotoxicity assay, A549; conditions: A549, 48 h, CCK-8, 50% growth inhibition, read-out: Cytotoxicity IC50 Lung A549
Experimental: as §1, §2

[3] = tested on: SKOV3 (human ovarian carcinoma); assay: CCK-8 cytotoxicity assay, SKOV3; conditions: SK-OV-3, SKOV3, 48 h, CCK-8, 50% growth inhibition, read-out: Cytotoxicity IC50 Ovarian SKOV3
Experimental: as §1, §2

## CC[C@@]1(O)C(=O)OCc2c1cc1n(c2=O)Cc2cc3ccccc3nc2-1 [CPT, Camptothecin, reference compound]
[1]
  IC50 at 48 h: 0.017 nM
[2]
  IC50: 1 nM
[3]
  IC50: 5.5 nM
